{"source": "patent US20250313653A1", "about": "“GUEST/HOST INCLUSION COMPLEXES CONTAINING S-NITROSOGLUTATHIONE AND METHODS OF USE THEREOF” (VIRGINIA COMMONWEALTH UNIVERSITY, priority 2022, published 2025)", "key": {"[1]": {"conditions": "at low pH; cited from earlier work"}, "[2]": {"assay": "GSNO thermal decomposition via UV-Vis absorption spectroscopy", "format": "physicochemical", "experimental": "GSNO was synthesized by nitrosation of reduced L-glutathione in acidified nitrite as previously reported.^52 After collecting GSNO precipitates and washing them using cold water and acetone, GSNO powder was vacuum dried for 4 h and stored at −20° C. GSNO powders were dissolved in phosphate buffer (PB) containing the same mole of Na2HPO4 before the pH adjustment. For example, the formal concentration of Na2HPO4 is 0.1 M when the GSNO concentration is 0.1 M. One hundred μM EDTA was always added to each solution before the solution pH was finally adjusted to 7.4 via NaOH. EDTA is a chelating agent to mask Cu^2+, a S-nitrosothiol catalyst that may exist in solvents and chemicals as an impurity.^53 For solutions with reactive agents, BSA, ascorbic acid, or cysteine was added before the pH adjustment. To prepare GSNO-CD solutions, appropriate amounts of CD powders were dissolved into the GSNO solutions prior to the pH adjustment.\nAqueous GSNO solutions were contained in 1.5 mL disposable polystyrene cuvettes. The cuvette was caped and further sealed with parafilm. The concentrations of GSNO during storage at 37° C. or 25° C. in the dark were monitored by a UV-vis spectrophotometer (Go Direct® Fluorescence/UV-VIS Spectrophotometer) at a wavelength of 545 nm. A 4 W LED white light was used as the light source for the photodecomposition experiment at room temperature. The distance between the light source and the cuvettes was approximately 10 cm. All GSNO decomposition experiments were triplicated, and the GSNO concentration was expressed as mean±standard deviation."}, "E. coli": {"test_system": "E. coli", "assay": "Antibacterial effect of NO release solutions, 3-day exposure", "format": "cell-based", "conditions": "silicone surface", "experimental": "Both biofilm and planktonic bacteria were quantified to evaluate the antibacterial activities of the proposed method. LB medium (25 mg/mL) was used to culture all bacterial strains overnight before performing the antibacterial tests. Segments of medical-grade silicone tubes were all autoclaved. Lock solutions were freshly prepared using the sterilized buffer and filtered through a 0.22 m PES syringe filter. The biofilms on the silicone surface were dip-rinsed 5 times in PBS and detached by 1-min vertexing, 1-min sonication (20% power of a 150 W probe sonifier, Branson Ultrasonics), and another 1-min vertexing for plate counting. When quantifying the planktonic bacteria, the suspension was homogenized by 1-min vertexing. […] After plate incubation at 37° C. overnight, colony-forming units (CFU) of bacteria were counted and converted to CFU/cm^2 for biofilm quantification and CFU/mL for planktonic bacteria quantification. […] In our case, the limit of detection (LOD) is 400 CFU/cm^2 for biofilm quantification and 200 CFU/mL for quantification of planktonic bacteria. […] The statistical significance between groups was determined using a student's t-test.\nThe 0.1 M αCD, 0.1 M GSNO, and 0.1 M GSNO+0.1 M αCD solutions were prepared in LB broth buffered with 0.1 M Na2HPO4 and adjusted to pH 7.4. […] Viable biofilm and planktonic cells were evaluated by plate counting. […]"}, "[3]": {"conditions": "0.1 M GSNO in 0.1 M PB, pH 7.4, 37° C., with 0.15 M αCD and 0.1 M γCD"}, "[4]": {"conditions": "0.1 M GSNO in 0.1 M PB, pH 7.4, 37° C., without CD"}, "[5]": {"conditions": "0.1 M GSNO with 0.15 M αCD and 0.1 M γCD versus GSNO only"}}}
{"smiles": "N[C@@H](CCC(=O)N[C@@H](CSN=O)C(=O)NCC(=O)O)C(=O)O", "note": "[GSNO, S-nitrosoglutathione]", "values": [{"measurement": "aqueous solubility", "setting": "[1]", "value": 75, "unit": "mM"}, {"measurement": "GSNO lifetime", "setting": "[2]; 0.05 M GSNO and 0.15 M αCD in 0.05 M PB, pH 7.4, 37° C.", "value": 17, "unit": "days"}, {"measurement": "GSNO lifetime", "setting": "[2]; 0.05 M GSNO in 0.05 M PB, pH 7.4, 37° C., without CDs", "value": 7, "unit": "days"}, {"measurement": "GSNO decay in the first 24 h", "setting": "[2]; 0.1 M GSNO in 0.1 M PB, pH 7.4, 37° C., with 0.1 M αCD", "value": 39, "unit": "%"}, {"measurement": "GSNO lifetime", "setting": "[2]; [3]", "value": 15, "unit": "days"}, {"measurement": "first-day decay of GSNO", "setting": "[2]; [3]", "value": 22, "unit": "%"}, {"measurement": "GSNO lifetime", "setting": "[2]; 0.1 M GSNO in 0.1 M PB, pH 7.4, 37° C., with an equal mole (0.1 M) of αCD", "value": 11, "unit": "days"}, {"measurement": "GSNO degraded within the first 24 h", "setting": "[2]; [4]", "value": 66, "unit": "%"}, {"measurement": "GSNO lifetime", "setting": "[2]; [4]", "value": 6, "unit": "days"}, {"measurement": "improvement of GSNO lifetime", "setting": "[2]; [5]", "value": 2.5, "unit": "times"}, {"measurement": "improvement of first-day decay", "setting": "[2]; [5]", "value": 3, "unit": "times"}, {"measurement": "lifetime of 0.1 M GSNO", "setting": "[2]; in the presence of CDs at 37° C.", "value": "up to 15 days"}, {"measurement": "half-life at 0.05 M", "setting": "[2]; phosphate buffer, room temperature, 0.05 M GSNO in 0.05 M PB pH 7.4, with 0.15 M αCD", "value": "~20", "unit": "days"}, {"measurement": "half-life of GSNO relative to only GSNO", "setting": "[2]; room temperature, with 0.15 M αCD", "value": 4, "unit": "times"}, {"measurement": "reduction of E. coli biofilm", "setting": "E. coli", "value": 79, "unit": "%"}]}
